ChEMBL document CHEMBL1136535, “Unexpected inhibition of S-adenosyl-L-homocysteine hydrolase by a guanosine nucleoside” (Bioorg Med Chem Lett, 2003)
pKi: −log10 of the molar value.

How the values were obtained:
Adenosylhomocysteinase [1] = target: T1, Adenosylhomocysteinase (Homo sapiens, UniProt P23526); experiment: Inhibitory activity against S-adenosyl-L-homocysteine hydrolase was determined in hydrolysis direction
Adenosylhomocysteinase [2] = target: T1, Adenosylhomocysteinase; experiment: Inhibitory activity against S-adenosyl-L-homocysteine hydrolase was determined in synthetic directions
Adenosylhomocysteinase [3] = target: T1, Adenosylhomocysteinase; experiment: Inhibitory activity against S-adenosyl-L-homocysteine hydrolase was determined

T1 sequence (P23526 whole entry): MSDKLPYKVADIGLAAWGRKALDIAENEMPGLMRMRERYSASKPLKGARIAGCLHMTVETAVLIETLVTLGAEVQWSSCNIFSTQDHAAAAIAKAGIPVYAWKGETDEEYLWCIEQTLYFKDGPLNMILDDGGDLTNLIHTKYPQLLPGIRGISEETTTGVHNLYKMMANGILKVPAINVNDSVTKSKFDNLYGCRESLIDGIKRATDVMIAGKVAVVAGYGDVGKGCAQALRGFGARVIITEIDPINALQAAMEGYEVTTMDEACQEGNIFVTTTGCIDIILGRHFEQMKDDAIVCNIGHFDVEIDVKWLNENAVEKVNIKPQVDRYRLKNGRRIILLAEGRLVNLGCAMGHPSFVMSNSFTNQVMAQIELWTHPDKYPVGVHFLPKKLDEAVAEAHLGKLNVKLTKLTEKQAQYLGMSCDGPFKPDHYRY

pKi (Adenosylhomocysteinase [1]) | pKi (Adenosylhomocysteinase [2]) | pKi (Adenosylhomocysteinase [3]) | Structure (SMILES)
3.89 | 3.66 | – | Nc1nc(O)cc(-c2cncn2C2O[C@H](CO)[C@@H](O)[C@H]2O)n1 (stereo not given in full)
– | – | 2.83 | Nc1nc2c(ncn2[C@@H]2O[C@H](CO)[C@@H](O)[C@H]2O)c(=O)[nH]1 [GUANOSINE]
– | – | 3.03 | OC[C@H]1O[C@@H](n2cnc3c(O)ncnc32)[C@H](O)[C@@H]1O [INOSINE]
– | – | 3.37 | OC[C@H]1OC(n2cncc2-c2cc(O)ncn2)[C@H](O)[C@@H]1O (stereo not given in full)
